Article PMC5053573, “Structure-Based Design of Tetrahydroisoquinoline-7-carboxamides as Selective Discoidin Domain Receptor 1 (DDR1) Inhibitors” (Journal of Medicinal Chemistry, 2016)

Tests used:
Assay in all cases: biochemical
Settings in all cases: read-out: %Ctrl @ 1000nM
RIOK2 = RIOK2 (Homo sapiens, UniProt Q9BVS4)
ASK1 = biological target: T1, ASK1 (Homo sapiens, UniProt Q99683)
T1 construct: gene MAP3K5

MST1 = biological target: T2, MST1 (Homo sapiens, UniProt Q13043)
T2 construct: gene STK4

EGFR = EGFR (Homo sapiens, UniProt P00533)
MAP3K2 = MAP3K2 (Homo sapiens, UniProt Q9Y2U5)
FGFR4 = FGFR4 (Homo sapiens, UniProt P22455)
MST2 = biological target: T3, MST2 (Homo sapiens, UniProt Q13188)
T3 construct: gene STK3

DCAMKL2 = biological target: T4, DCAMKL2 (Homo sapiens, UniProt Q8N568)
T4 construct: gene DCLK2

PIM2 = PIM2 (Homo sapiens, UniProt Q9P1W9)
IGF1R = IGF1R (Homo sapiens, UniProt P08069)
MARK1 = MARK1 (Homo sapiens, UniProt Q9P0L2)
NDR2 = biological target: T5, NDR2 (Homo sapiens, UniProt Q9Y2H1)
T5 construct: gene STK38L

EPHA4 = EPHA4 (Homo sapiens, UniProt P54764)
CHEK1 = CHEK1 (Homo sapiens, UniProt O14757)
PKAC-beta = biological target: T6, PKAC-beta (Homo sapiens, UniProt P22694)
T6 construct: gene PRKACB

CDK7 = CDK7 (Homo sapiens, UniProt P50613)
FLT3(R834Q) = FLT3(R834Q) (Homo sapiens, UniProt P36888, R834Q)
PLK3 = PLK3 (Homo sapiens, UniProt Q9H4B4)
MLK3 = biological target: T7, MLK3 (Homo sapiens, UniProt Q16584)
T7 construct: gene MAP3K11

IRAK3 = IRAK3 (Homo sapiens, UniProt Q9Y616)
SRPK2 = SRPK2 (Homo sapiens, UniProt P78362)
JNK1 = biological target: T8, JNK1 (Homo sapiens, UniProt P45983)
T8 construct: gene MAPK8

NEK4 = NEK4 (Homo sapiens, UniProt P51957)
DYRK2 = DYRK2 (Homo sapiens, UniProt Q92630)
HIPK2 = HIPK2 (Homo sapiens, UniProt Q9H2X6)
ROCK2 = ROCK2 (Homo sapiens, UniProt O75116)
RIPK2 = RIPK2 (Homo sapiens, UniProt O43353)
RET(V804L) = RET(V804L) (Homo sapiens, UniProt P07949, V804L)
PIK3CA(E542K) = PIK3CA(E542K) (Homo sapiens, UniProt P42336, E542K)
IRAK1 = IRAK1 (Homo sapiens, UniProt P51617)
BMPR1B = BMPR1B (Homo sapiens, UniProt O00238)
[1] = biological target: ABL1(T315I)-nonphosphorylated (Homo sapiens, UniProt P00519, T315I)
EPHA8 = EPHA8 (Homo sapiens, UniProt P29322)
BRAF = BRAF (Homo sapiens, UniProt P15056)
ERK1 = biological target: T9, ERK1 (Homo sapiens, UniProt P27361)
T9 construct: gene MAPK3

T8 sequence (P45983 whole entry): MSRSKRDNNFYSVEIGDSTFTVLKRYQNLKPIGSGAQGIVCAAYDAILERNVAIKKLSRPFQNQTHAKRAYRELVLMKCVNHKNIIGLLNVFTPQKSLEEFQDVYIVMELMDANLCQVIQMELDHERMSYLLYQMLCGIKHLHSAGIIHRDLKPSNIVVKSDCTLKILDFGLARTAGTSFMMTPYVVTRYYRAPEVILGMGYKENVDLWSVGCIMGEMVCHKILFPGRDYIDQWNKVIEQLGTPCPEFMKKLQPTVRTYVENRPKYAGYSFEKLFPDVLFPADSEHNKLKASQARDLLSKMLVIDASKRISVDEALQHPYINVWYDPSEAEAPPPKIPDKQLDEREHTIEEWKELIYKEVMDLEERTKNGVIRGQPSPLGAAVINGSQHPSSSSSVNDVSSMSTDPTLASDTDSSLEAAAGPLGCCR
Sequence of EPHA4 (P54764 whole entry): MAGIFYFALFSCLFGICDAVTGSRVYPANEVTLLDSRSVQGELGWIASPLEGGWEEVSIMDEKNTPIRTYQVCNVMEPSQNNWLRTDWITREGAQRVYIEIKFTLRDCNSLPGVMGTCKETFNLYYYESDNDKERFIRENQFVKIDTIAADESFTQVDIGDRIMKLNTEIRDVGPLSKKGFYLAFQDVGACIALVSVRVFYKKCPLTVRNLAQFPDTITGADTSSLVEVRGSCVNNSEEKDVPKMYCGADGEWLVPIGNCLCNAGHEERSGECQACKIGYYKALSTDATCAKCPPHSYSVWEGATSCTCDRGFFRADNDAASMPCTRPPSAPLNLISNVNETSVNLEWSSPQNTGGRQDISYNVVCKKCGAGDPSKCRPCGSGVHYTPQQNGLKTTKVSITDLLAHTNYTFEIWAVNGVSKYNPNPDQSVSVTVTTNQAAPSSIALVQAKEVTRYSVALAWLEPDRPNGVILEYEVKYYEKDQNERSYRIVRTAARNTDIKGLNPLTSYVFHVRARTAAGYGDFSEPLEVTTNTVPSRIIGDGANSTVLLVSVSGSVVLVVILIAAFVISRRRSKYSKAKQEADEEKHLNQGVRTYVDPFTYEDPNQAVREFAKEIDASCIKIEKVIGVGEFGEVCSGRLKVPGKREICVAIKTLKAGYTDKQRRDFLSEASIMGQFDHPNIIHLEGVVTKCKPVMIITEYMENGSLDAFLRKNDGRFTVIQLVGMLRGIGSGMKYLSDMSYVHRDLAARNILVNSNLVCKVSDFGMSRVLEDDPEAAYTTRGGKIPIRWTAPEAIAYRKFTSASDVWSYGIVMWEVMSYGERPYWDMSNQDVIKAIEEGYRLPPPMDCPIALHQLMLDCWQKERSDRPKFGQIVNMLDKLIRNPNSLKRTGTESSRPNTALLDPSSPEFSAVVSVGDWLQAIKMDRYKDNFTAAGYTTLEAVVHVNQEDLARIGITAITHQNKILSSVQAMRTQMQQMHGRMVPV
Sequence of ROCK2 (O75116 whole entry): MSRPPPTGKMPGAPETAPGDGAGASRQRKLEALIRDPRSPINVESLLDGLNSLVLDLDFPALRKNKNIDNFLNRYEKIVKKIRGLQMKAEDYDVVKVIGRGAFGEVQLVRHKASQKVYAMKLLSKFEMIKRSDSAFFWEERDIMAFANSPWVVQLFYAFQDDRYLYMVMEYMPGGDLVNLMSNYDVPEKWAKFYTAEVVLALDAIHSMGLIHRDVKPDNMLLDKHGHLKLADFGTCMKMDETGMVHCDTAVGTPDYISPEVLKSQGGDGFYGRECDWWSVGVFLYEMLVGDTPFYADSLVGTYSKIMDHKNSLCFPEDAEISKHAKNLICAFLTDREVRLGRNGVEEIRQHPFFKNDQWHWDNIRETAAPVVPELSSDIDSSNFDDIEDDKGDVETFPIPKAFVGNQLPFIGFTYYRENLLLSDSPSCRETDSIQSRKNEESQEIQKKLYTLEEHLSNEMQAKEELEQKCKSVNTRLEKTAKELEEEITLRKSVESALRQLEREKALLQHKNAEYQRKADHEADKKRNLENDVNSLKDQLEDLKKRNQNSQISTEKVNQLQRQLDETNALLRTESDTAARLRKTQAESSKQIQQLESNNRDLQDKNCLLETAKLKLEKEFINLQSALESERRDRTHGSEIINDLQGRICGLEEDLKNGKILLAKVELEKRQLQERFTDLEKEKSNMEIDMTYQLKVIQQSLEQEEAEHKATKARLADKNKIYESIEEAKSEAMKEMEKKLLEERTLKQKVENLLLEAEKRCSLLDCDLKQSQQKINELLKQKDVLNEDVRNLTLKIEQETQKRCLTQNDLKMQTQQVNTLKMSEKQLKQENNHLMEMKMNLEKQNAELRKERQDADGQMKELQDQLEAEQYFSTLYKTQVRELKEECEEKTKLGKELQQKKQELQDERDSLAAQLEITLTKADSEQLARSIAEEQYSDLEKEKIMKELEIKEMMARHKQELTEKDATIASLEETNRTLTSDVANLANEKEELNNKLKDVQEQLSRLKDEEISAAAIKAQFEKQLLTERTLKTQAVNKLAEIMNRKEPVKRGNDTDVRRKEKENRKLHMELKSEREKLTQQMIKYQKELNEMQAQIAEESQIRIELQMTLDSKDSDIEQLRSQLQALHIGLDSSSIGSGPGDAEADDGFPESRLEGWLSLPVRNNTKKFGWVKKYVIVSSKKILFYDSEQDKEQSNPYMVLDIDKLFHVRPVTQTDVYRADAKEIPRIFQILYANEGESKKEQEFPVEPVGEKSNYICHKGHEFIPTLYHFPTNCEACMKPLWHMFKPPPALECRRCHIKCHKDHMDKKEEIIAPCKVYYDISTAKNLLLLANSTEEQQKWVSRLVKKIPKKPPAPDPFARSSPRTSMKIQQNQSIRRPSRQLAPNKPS
T5 sequence (Q9Y2H1 whole entry): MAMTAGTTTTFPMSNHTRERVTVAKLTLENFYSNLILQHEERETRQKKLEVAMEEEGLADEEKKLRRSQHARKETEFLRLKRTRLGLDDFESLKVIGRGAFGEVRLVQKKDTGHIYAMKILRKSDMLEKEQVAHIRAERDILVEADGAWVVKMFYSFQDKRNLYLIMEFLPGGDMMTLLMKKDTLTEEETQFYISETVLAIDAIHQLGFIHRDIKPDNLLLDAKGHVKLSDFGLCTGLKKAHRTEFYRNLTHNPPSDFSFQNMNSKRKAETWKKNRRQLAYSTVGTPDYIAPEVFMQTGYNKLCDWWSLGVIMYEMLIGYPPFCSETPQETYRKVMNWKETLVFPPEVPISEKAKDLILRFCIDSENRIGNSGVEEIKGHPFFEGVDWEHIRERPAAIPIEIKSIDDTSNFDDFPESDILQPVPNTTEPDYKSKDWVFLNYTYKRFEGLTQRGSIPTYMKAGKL
Sequence of RET(V804L) (P07949 whole entry V804L): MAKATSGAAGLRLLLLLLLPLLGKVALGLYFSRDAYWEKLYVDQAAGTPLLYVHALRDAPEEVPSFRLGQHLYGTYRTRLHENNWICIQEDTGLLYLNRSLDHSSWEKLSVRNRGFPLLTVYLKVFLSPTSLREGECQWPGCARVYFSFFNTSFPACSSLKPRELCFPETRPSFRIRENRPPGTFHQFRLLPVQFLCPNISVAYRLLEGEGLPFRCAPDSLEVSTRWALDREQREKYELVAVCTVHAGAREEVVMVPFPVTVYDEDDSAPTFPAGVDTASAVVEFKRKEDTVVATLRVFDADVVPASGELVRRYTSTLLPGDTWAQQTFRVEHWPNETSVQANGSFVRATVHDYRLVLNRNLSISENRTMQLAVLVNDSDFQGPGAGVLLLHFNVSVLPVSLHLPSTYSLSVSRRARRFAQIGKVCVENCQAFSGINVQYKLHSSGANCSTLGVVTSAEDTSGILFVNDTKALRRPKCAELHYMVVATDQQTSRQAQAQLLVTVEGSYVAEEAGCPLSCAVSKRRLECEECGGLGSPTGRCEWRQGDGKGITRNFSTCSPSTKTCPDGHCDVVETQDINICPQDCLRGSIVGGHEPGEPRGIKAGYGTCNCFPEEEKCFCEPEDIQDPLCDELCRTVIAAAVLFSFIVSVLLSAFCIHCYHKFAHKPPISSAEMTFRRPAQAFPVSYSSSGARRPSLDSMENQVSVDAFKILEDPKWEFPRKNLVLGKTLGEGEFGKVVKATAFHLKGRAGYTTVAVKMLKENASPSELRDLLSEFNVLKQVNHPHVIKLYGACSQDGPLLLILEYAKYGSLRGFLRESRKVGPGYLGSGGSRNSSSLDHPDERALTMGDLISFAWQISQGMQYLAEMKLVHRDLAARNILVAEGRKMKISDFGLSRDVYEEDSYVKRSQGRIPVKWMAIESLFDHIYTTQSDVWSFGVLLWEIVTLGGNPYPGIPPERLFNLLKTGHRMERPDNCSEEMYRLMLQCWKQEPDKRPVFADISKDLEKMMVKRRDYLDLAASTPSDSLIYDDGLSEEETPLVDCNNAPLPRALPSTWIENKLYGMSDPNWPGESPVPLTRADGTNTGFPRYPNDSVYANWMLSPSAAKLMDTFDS
Sequence of DYRK2 (Q92630 whole entry): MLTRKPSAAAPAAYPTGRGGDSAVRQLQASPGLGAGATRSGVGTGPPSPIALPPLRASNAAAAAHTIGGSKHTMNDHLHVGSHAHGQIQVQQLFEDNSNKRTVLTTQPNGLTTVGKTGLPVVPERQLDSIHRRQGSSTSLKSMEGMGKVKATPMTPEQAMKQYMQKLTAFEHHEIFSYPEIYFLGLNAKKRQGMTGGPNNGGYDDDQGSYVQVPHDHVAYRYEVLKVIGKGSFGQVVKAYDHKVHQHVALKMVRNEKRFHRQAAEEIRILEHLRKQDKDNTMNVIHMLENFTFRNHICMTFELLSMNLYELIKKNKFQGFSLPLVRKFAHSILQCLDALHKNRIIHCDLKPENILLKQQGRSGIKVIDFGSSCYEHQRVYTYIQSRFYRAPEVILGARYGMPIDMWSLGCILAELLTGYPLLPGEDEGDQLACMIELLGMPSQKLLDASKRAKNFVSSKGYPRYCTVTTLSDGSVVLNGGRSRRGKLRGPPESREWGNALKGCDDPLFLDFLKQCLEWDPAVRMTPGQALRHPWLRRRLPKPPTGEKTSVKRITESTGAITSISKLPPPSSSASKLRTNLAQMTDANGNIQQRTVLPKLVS

- remaining activity at 1 µM (RIOK2): 77%
- remaining activity at 1 µM (ASK1): 92%
- remaining activity at 1 µM (MST1): 85%
- remaining activity at 1 µM (EGFR): 94%
- remaining activity at 1 µM (MAP3K2): 92%
- remaining activity at 1 µM (FGFR4): 85%
- remaining activity at 1 µM (MST2): 100%
- remaining activity at 1 µM (DCAMKL2): 100%
- remaining activity at 1 µM (PIM2): 97%
- remaining activity at 1 µM (IGF1R): 100%
- remaining activity at 1 µM (MARK1): 74%
- remaining activity at 1 µM (NDR2): 100%
- remaining activity at 1 µM (EPHA4): 77%
- remaining activity at 1 µM (CHEK1): 96%
- remaining activity at 1 µM (PKAC-beta): 97%
- remaining activity at 1 µM (CDK7): 80%
- remaining activity at 1 µM (FLT3(R834Q)): 86%
- remaining activity at 1 µM (PLK3): 100%
- remaining activity at 1 µM (MLK3): 81%
- remaining activity at 1 µM (IRAK3): 86%
- remaining activity at 1 µM (SRPK2): 100%
- remaining activity at 1 µM (JNK1): 97%
- remaining activity at 1 µM (NEK4): 98%
- remaining activity at 1 µM (DYRK2): 100%
- remaining activity at 1 µM (HIPK2): 100%
- remaining activity at 1 µM (ROCK2): 96%
- remaining activity at 1 µM (RIPK2): 80%
- remaining activity at 1 µM (RET(V804L)): 94%
- remaining activity at 1 µM (PIK3CA(E542K)): 100%
- remaining activity at 1 µM (IRAK1): 100%
- remaining activity at 1 µM (BMPR1B): 100%
- remaining activity at 1 µM [1]: 100%
- remaining activity at 1 µM (EPHA8): 21%
- remaining activity at 1 µM (BRAF): 96%
- remaining activity at 1 µM (ERK1): 95%
Compound: Cc1cn(-c2cc(NC(=O)c3ccc4c(c3)CN(c3cncnc3)C[C@@H]4C)cc(C(F)(F)F)c2)cn1 [Compound 6j]
